From PubChem BioAssay AID1259407 (Chemical Carcinogenesis Research Information System (CCRIS), 2018) come the findings set out here.

Activity calls are given as the source filed them. How the calls were made is not given here.

The subject of this series is CCRIS mutagenicity, Ames/micronucleus/aberration tests. The series is described as follows: CCRIS mutagenicity studies.
The mark [1] stands for this setting: Test System: AMES SALMONELLA TYPHIMURIUM, Strain/Indicator: TA98, Metabolic Activation: HAMSTER, LIVER, S-9, AROCLOR 1254 (10%), Method: PREINCUBATION
The mark [2] stands for this setting: Test System: AMES SALMONELLA TYPHIMURIUM, Strain/Indicator: TA98, Metabolic Activation: NONE, Method: PREINCUBATION
The mark [3] stands for this setting: Test System: AMES SALMONELLA TYPHIMURIUM, Strain/Indicator: TA98, Metabolic Activation: RAT, LIVER, S-9, AROCLOR 1254 (10%), Method: PREINCUBATION
The mark [4] stands for this setting: Test System: AMES SALMONELLA TYPHIMURIUM, Strain/Indicator: TA100, Metabolic Activation: HAMSTER, LIVER, S-9, AROCLOR 1254 (10%), Method: PREINCUBATION
Setting [5] is: Test System: AMES SALMONELLA TYPHIMURIUM, Strain/Indicator: TA100, Metabolic Activation: NONE, Method: PREINCUBATION
Where [6] appears, read: Test System: AMES SALMONELLA TYPHIMURIUM, Strain/Indicator: TA100, Metabolic Activation: RAT, LIVER, S-9, AROCLOR 1254 (10%), Method: PREINCUBATION
[7] abbreviates: Test System: AMES SALMONELLA TYPHIMURIUM, Strain/Indicator: TA1535, Metabolic Activation: HAMSTER, LIVER, S-9, AROCLOR 1254 (10%), Method: PREINCUBATION
[8] abbreviates: Test System: AMES SALMONELLA TYPHIMURIUM, Strain/Indicator: TA1535, Metabolic Activation: NONE, Method: PREINCUBATION
[9] abbreviates: Test System: AMES SALMONELLA TYPHIMURIUM, Strain/Indicator: TA1535, Metabolic Activation: RAT, LIVER, S-9, AROCLOR 1254 (10%), Method: PREINCUBATION
Where [10] appears, read: Test System: AMES SALMONELLA TYPHIMURIUM, Strain/Indicator: TA1537, Metabolic Activation: NONE, Method: PREINCUBATION

Consider `FC(Cl)(Cl)Cl`, for which the mutagenic call under setting [1] was “inactive; negative”; the mutagenic call (Test System: AMES SALMONELLA TYPHIMURIUM, Strain/Indicator: TA98, Metabolic Activation: NONE, Method: GAS EXPOSURE) was “inactive; negative”; the mutagenic call under setting [2] was “inactive; negative”; the mutagenic call (Test System: AMES SALMONELLA TYPHIMURIUM, Strain/Indicator: TA98, Metabolic Activation: RAT LIVER S-9, PHENOBARBITAL AND BETA-NAPHTHOFLAVONE (40%), Method: GAS EXPOSURE) was “inactive; negative”; the mutagenic call under setting [3] is “inactive; negative”; the mutagenic call under setting [4] is “inactive; negative”. Also, the mutagenic call reads like this: (Test System: AMES SALMONELLA TYPHIMURIUM, Strain/Indicator: TA100, Metabolic Activation: NONE, Method: GAS EXPOSURE) “inactive; negative”; under setting [5], “inactive; negative”; (Test System: AMES SALMONELLA TYPHIMURIUM, Strain/Indicator: TA100, Metabolic Activation: RAT LIVER S-9, PHENOBARBITAL AND BETA-NAPHTHOFLAVONE (40%), Method: GAS EXPOSURE) “inactive; negative”; under setting [6], “inactive; negative”; under setting [7], “inactive; negative”; (Test System: AMES SALMONELLA TYPHIMURIUM, Strain/Indicator: TA1535, Metabolic Activation: NONE, Method: GAS EXPOSURE) “inactive; negative”. The mutagenic call under setting [8] was “inactive; negative”; the mutagenic call (Test System: AMES SALMONELLA TYPHIMURIUM, Strain/Indicator: TA1535, Metabolic Activation: RAT LIVER S-9, PHENOBARBITAL AND BETA-NAPHTHOFLAVONE (40%), Method: GAS EXPOSURE) is “inactive; negative”; the mutagenic call under setting [9] is “inactive; negative”; the mutagenic call (Test System: AMES SALMONELLA TYPHIMURIUM, Strain/Indicator: TA1537, Metabolic Activation: HAMSTER, LIVER, S-9, AROCLOR 1254 (10%), Method: PREINCUBATION) was “inactive; negative”; the mutagenic call (Test System: AMES SALMONELLA TYPHIMURIUM, Strain/Indicator: TA1537, Metabolic Activation: NONE, Method: GAS EXPOSURE) is “inactive; negative”; the mutagenic call under setting [10] is “inactive; negative”. The mutagenic call reads like this: (Test System: AMES SALMONELLA TYPHIMURIUM, Strain/Indicator: TA1537, Metabolic Activation: RAT LIVER S-9, PHENOBARBITAL AND BETA-NAPHTHOFLAVONE (40%), Method: GAS EXPOSURE) “inactive; negative”; (Test System: AMES SALMONELLA TYPHIMURIUM, Strain/Indicator: TA1537, Metabolic Activation: RAT, LIVER, S-9, AROCLOR 1254 (10%), Method: PREINCUBATION) “inactive; negative”; (Test System: E.COLI, Strain/Indicator: WP2UVRA, Metabolic Activation: NONE, Method: GAS EXPOSURE) “inactive; negative”; (Test System: E.COLI, Strain/Indicator: WP2UVRA, Metabolic Activation: RAT LIVER S-9, PHENOBARBITAL AND BETA-NAPHTHOFLAVONE (40%), Method: GAS EXPOSURE) “inactive; negative”; (Test System: Mouse lymphoma, Strain/Indicator: L5178Y (tk+/tk-), Metabolic Activation: None, Method: Suspension/plate) “inactive; negative”; (Test System: Mouse lymphoma, Strain/Indicator: L5178Y (tk+/tk-), Metabolic Activation: Rat, Liver, S-9, Aroclor 1254, Method: Suspension/plate) “inactive; inconclusive (previous evaluation negative)”.

Regarding `CCC(CO)[N+](=O)[O-]` (stereo not drawn), the mutagenic call is, setting by setting: (Test System: AMES SALMONELLA TYPHIMURIUM, Strain/Indicator: TA97, Metabolic Activation: HAMSTER, LIVER, S-9, AROCLOR 1254 (10%), Method: PREINCUBATION) “inactive; negative”; (Test System: AMES SALMONELLA TYPHIMURIUM, Strain/Indicator: TA97, Metabolic Activation: HAMSTER, LIVER, S-9, AROCLOR 1254 (30%), Method: PREINCUBATION) “inactive; negative”; (Test System: AMES SALMONELLA TYPHIMURIUM, Strain/Indicator: TA97, Metabolic Activation: NONE, Method: PREINCUBATION) “inactive; negative”; (Test System: AMES SALMONELLA TYPHIMURIUM, Strain/Indicator: TA97, Metabolic Activation: RAT, LIVER, S-9, AROCLOR 1254 (10%), Method: PREINCUBATION) “inactive; negative”; (Test System: AMES SALMONELLA TYPHIMURIUM, Strain/Indicator: TA97, Metabolic Activation: RAT, LIVER, S-9, AROCLOR 1254 (30%), Method: PREINCUBATION) “inactive; negative”; under setting [1], “inactive; negative”. Also, the mutagenic call (Test System: AMES SALMONELLA TYPHIMURIUM, Strain/Indicator: TA98, Metabolic Activation: HAMSTER, LIVER, S-9, AROCLOR 1254 (30%), Method: PREINCUBATION) is “inactive; negative”; the mutagenic call under setting [2] was “inactive; negative”; the mutagenic call under setting [3] is “inactive; negative”; the mutagenic call (Test System: AMES SALMONELLA TYPHIMURIUM, Strain/Indicator: TA98, Metabolic Activation: RAT, LIVER, S-9, AROCLOR 1254 (30%), Method: PREINCUBATION) was “inactive; negative”; the mutagenic call (Test System: AMES SALMONELLA TYPHIMURIUM, Strain/Indicator: TA98, Metabolic Activation: RAT, LIVER, S-9, AROCLOR, Method: PREINCUBATION) was “inactive; negative”; the mutagenic call under setting [4] is “inactive; negative”. Also, the mutagenic call was “inactive; negative” (Test System: AMES SALMONELLA TYPHIMURIUM, Strain/Indicator: TA100, Metabolic Activation: HAMSTER, LIVER, S-9, AROCLOR 1254 (30%), Method: PREINCUBATION); “inactive; negative” under setting [5]; “inactive; negative” under setting [6]; “inactive; negative” (Test System: AMES SALMONELLA TYPHIMURIUM, Strain/Indicator: TA100, Metabolic Activation: RAT, LIVER, S-9, AROCLOR 1254 (30%), Method: PREINCUBATION); “inactive; negative” (Test System: AMES SALMONELLA TYPHIMURIUM, Strain/Indicator: TA100, Metabolic Activation: RAT, LIVER, S-9, AROCLOR, Method: PREINCUBATION); “inactive; negative” (Test System: AMES SALMONELLA TYPHIMURIUM, Strain/Indicator: TA102, Metabolic Activation: NONE, Method: PREINCUBATION). The mutagenic call by setting is: (Test System: AMES SALMONELLA TYPHIMURIUM, Strain/Indicator: TA102, Metabolic Activation: RAT, LIVER, S-9, AROCLOR, Method: PREINCUBATION) “inactive; negative”; under setting [7], “inactive; negative”; (Test System: AMES SALMONELLA TYPHIMURIUM, Strain/Indicator: TA1535, Metabolic Activation: HAMSTER, LIVER, S-9, AROCLOR 1254 (30%), Method: PREINCUBATION) “inactive; negative”; under setting [8], “inactive; negative”; under setting [9], “inactive; negative”; (Test System: AMES SALMONELLA TYPHIMURIUM, Strain/Indicator: TA1535, Metabolic Activation: RAT, LIVER, S-9, AROCLOR 1254 (30%), Method: PREINCUBATION) “inactive; negative”. Moreover, the mutagenic call was “inactive; negative” (Test System: AMES SALMONELLA TYPHIMURIUM, Strain/Indicator: TA1537, Metabolic Activation: HAMSTER, LIVER, S-9, AROCLOR 1254 (30%), Method: PREINCUBATION); “inactive; negative” under setting [10]; “inactive; negative” (Test System: AMES SALMONELLA TYPHIMURIUM, Strain/Indicator: TA1537, Metabolic Activation: RAT, LIVER, S-9, AROCLOR 1254 (30%), Method: PREINCUBATION).

Regarding `Cn1cc(C(=O)O)c(=O)c2ccc(/C=C/c3ccc([N+](=O)[O-])o3)nc21`, the mutagenic call (Test System: AMES SALMONELLA TYPHIMURIUM, Strain/Indicator: TA100, Metabolic Activation: RAT, LIVER, S-9, KC500 OR PHENOBARBITAL, Method: LIQUID SUSPENSION) was “active; positive”.

Consider `O[C@H]1c2ccccc2-c2cc3ccc4ccccc4c3cc2[C@@H]1O`, for which the mutagenic call (Test System: AMES SALMONELLA TYPHIMURIUM, Strain/Indicator: TA100, Metabolic Activation: RAT, LIVER, S-9, AROCLOR 1254, Method: STANDARD PLATE) was “active; positive”.
